Data taken from US9238631B2, “Radiolabeled amino acids for diagnostic imaging” (PIRAMAL IMAGING SA, priority 2011, dated 2016).

Assays:
NCI-H460 tumor [1] = experiment: PET imaging in NCI-H460 tumor bearing nude-rats; assay type: in vivo; details: PET ROI analysis, 1 h p.i.
Procedure: c) Beside PET-imaging studies in mice, also the imaging properties of [^18F]-12 in rats were examined. NCI-H460 tumor cells were inoculated into the right flank of nude-rats (RH-Foxn1 nu/nu) 8 to 10 days before the PET study. PET images were acquired at 60 min after injection of approximately 10 MBq for 10 minutes. The H460 tumor was nicely visible (0.9% ID/g as determined by ROI analysis). Beside some minor uptake into the liver and kidneys due to the excretion of the compound, no uptake into other non-target tissues was observed.
To test the imaging properties, compounds from the present invention were evaluated in PET imaging studies using tumor bearing rats. NCI-H460 tumor cells were inoculated into the right flank of nude-rats (RH-Foxn1 nu/nu) 8 to 10 days before the PET study. PET images were acquired at 60 min after injection of approximately 10 MBq for 10 minutes. After the imaging study, region-of-interest (ROI) analysis was performed and activity in tumor, liver and kidney was determined. […] High tumor uptake values of >1% […] in this rat model were obtained with various compounds from the present invention. A favorable clearance profile of all compounds enables excellent tumor detection in PET imaging studies in tumor bearing rats.

NCI-H460 tumor [2] = experiment: In vivo biodistribution in NCI-H460 tumor bearing mice; details: for T/Blood / T/Muscle: 1 h post injection
Procedure: (§1) To test the pharmacokinetic properties of compounds from the present invention, all F18-labeled compounds were examined by biodistribution studies in NCI-H460 tumor bearing mice. Female NMRI (nu/nu) mice were inoculated with 5×10^6 NCI-H460 tumor cells 8 to 10 days before the biodistribution studies. 185 kBq of activity of the fluorinated compound was injected and at least n=3 mice were used for every time point. After injection of the F18-labeled compound, mice were sacrificed at defined time-points. All organs were removed and radioactivity was determined using a γ-counter.
To compare the tumor uptake and retention of radioactivity of different ^18F-labeled derivatives from the present invention, biodistribution studies were performed in NCI-H460 tumor bearing NMRI (nu/nu) mice as described above.
To compare the kidney clearance of several ^18F-labeled derivatives from the present invention, biodistribution studies were performed in NCI-H460 tumor bearing female NMRI (nu/nu) mice as described above. […] After 2 h p.i., less than 1% ID/g can be found in the kidneys.
For comparison of pancreas uptake and clearance of several ^18F-labeled derivatives from the present invention, biodistribution studies were performed in NCI-H460 tumor bearing NMRI (nu/nu) mice as described above. […] After 2 h p.i., less than 2% ID/g can be found in the pancreas.
as §1, with “and” for “for every time point. After injection of the F18-labeled compound, mice were”, “time-points raning from 15 min pi up to 2 h p.i.” for “time-points.”, “γ-counter. […] High tumor uptake values of >3% ID/g were obtained with various compounds from the present invention.” for “γ-counter.”

[3] = system: NCI-H460 (human NSCLC) cells; experiment: In vitro cell-uptake study: blocking of radiolabeled glutamate derivative uptake; assay type: cell-based; details: compound 1 mM, 30 minutes, mean ± SD, without compound = 100%
Procedure: The ability of compounds from the present invention to compete with radiolabeled glutamate derivatives for uptake into tumor cells was examined. NCI-H460 (human NSCLC) cells, grown adherently in 48 well plates were used for these competition-experiments. Approximately 100.000 cells were co-incubated in PBS-buffer containing 0.1% BSA with a radiolabeled Glutamic acid derivative and several compounds, which were used at a concentration of 1 mM for 30 minutes. After this time, the cell bound radioactivity was determined.

Row | Structure (SMILES) | Kidney (% ID/g at 1 h p.i.) (NCI-H460 tumor [1]) [% ID/g] | Liver (% ID/g at 1 h p.i.) (NCI-H460 tumor [1]) [% ID/g] | Tumor (Max % ID/g at 1 h p.i.) (NCI-H460 tumor [1]) [% ID/g] | Tumor (Mean % ID/g at 1 h p.i.) (NCI-H460 tumor [1]) [% ID/g] | Kidney (% ID/g at 1 h p.i.) (NCI-H460 tumor [2]) [% ID/g] | Liver (% ID/g at 1 h p.i.) (NCI-H460 tumor [2]) [% ID/g] | Pancreas (% ID/g at 1 h p.i.) (NCI-H460 tumor [2]) [% ID/g] | Tumor (% ID/g at 1 h p.i.) (NCI-H460 tumor [2]) [% ID/g] | Urine (% ID at 1 h p.i.) (NCI-H460 tumor [2]) [% ID] | T/Blood (NCI-H460 tumor [2]) | T/Muscle (NCI-H460 tumor [2]) | tumor uptake and retention (summary statement) (NCI-H460 tumor [2]; mouse, in vivo) | Uptake of radiolabeled glutamate-derivative (% of control) [3]
1 | N[C@@H](CCC(Cc1ccc(OC[18F])cc1)C(=O)O)C(=O)O (single isomer, unassigned) [[^18F]-41 C5-2] | 0.2 | 0.2 | 4.4 | 2.0 | 2.4 ± 0.8 | 0.3 ± 0.1 | 1.1 ± 0.2 | 8.7 ± 1.9 | 83.5 ± 5.1 | 36.0 | 107.3 | – | –
2 | N[C@@H](CC(Cc1ccc(CCCF)cc1)C(=O)O)C(=O)O (stereo partly drawn) [Example 9, 4-[4-(3-Fluoropropyl)benzyl]-L-glutamic acid] | – | – | – | – | – | – | – | – | – | – | – | – | 14.2 ± 1.0 % of control
3 | N[C@@H](CCC(Cc1ccc(OC[18F])cc1)C(=O)O)C(=O)O (single isomer, unassigned) [[^18F]-41 C5-1] | 0.5 | 0.4 | 3.2 | 1.2 | 3.5 ± 0.7 | 0.3 ± 0.1 | 2.2 ± 0.3 | 6.4 ± 1.4 | 85.0 ± 7.7 | 23.4 | 94.2 | – | –
4 | N[C@@H](CCC(Cc1ccc(NCC[18F])cc1)C(=O)O)C(=O)O (stereo partly drawn) [[^18F]-52, (2S)-2-amino-5-(4-{[2-(^18F)fluoroethyl]amino}benzyl)hexanedioic acid] | – | – | – | – | 3.5 ± 1.1 | 2.6 ± 0.4 | 7.5 ± 1.1 | 8.2 ± 2.1 | 66.8 ± 10.3 | 32.5 | 95.4 | high tumor uptake and retention | –
5 | N[C@@H](CSSC[C@H](N)C(=O)O)C(=O)O [L-cystine, reference compound] | – | – | – | – | – | – | – | – | – | – | – | – | 10.7 ± 0.7 % of control
6 | N[C@H](CCC(Cc1ccc(OCC[18F])cc1)C(=O)O)C(=O)O (stereo partly drawn) [[^18F]-16, (2R)-2-Amino-5-[4-(2-[^18F]fluoroethoxy)benzyl]hexanedioic acid] | 1.7 | 2.3 | 2.1 | 0.8 | 3.4 ± 0.3 | 3.3 ± 0.1 | 1.4 ± 0.1 | 3.6 ± 0.6 | 74.5 ± 6.8 | 14.1 | 54.2 | – | –
7 | N[C@@H](CC(Cc1ccc(OC[C@H](O)[C@@H](O)C[18F])cc1)C(=O)O)C(=O)O (stereo partly drawn) [[^18F]-58, 4-(4-{[(2S,3R)-4-(^18F)fluoro-2,3-dihydroxybutyl]oxy}benzyl)-L-glutamic acid] | 4.6 | 1.7 | 0.63 | 0.3 | – | – | – | – | – | – | – | – | –
8 | N[C@@H](CC(Cc1ccc(OC(CO)C[18F])cc1)C(=O)O)C(=O)O (stereo partly drawn) [[^18F]-60, 4-(4-{[1-(^18F)fluoro-3-hydroxypropan-2-yl]oxy}benzyl)-L-glutamic acid] | 2.2 | 0.9 | 2.2 | 1.0 | – | – | – | – | – | – | – | – | –

Second part, led by results:

Row | Kidney (% ID/g at 1 h p.i.) (NCI-H460 tumor [1]) [% ID/g] | Liver (% ID/g at 1 h p.i.) (NCI-H460 tumor [1]) [% ID/g] | Tumor (Max % ID/g at 1 h p.i.) (NCI-H460 tumor [1]) [% ID/g] | Tumor (Mean % ID/g at 1 h p.i.) (NCI-H460 tumor [1]) [% ID/g] | Kidney (% ID/g at 1 h p.i.) (NCI-H460 tumor [2]) [% ID/g] | Liver (% ID/g at 1 h p.i.) (NCI-H460 tumor [2]) [% ID/g] | Pancreas (% ID/g at 1 h p.i.) (NCI-H460 tumor [2]) [% ID/g] | Tumor (% ID/g at 1 h p.i.) (NCI-H460 tumor [2]) [% ID/g] | Urine (% ID at 1 h p.i.) (NCI-H460 tumor [2]) [% ID] | T/Blood (NCI-H460 tumor [2]) | T/Muscle (NCI-H460 tumor [2]) | tumor uptake and retention (summary statement) (NCI-H460 tumor [2]; mouse, in vivo) | Structure (SMILES) | Uptake of radiolabeled glutamate-derivative (% of control) [3]
9 | – | – | – | – | 2.5 ± 0.7 | 0.95 ± 0.1 | 1.2 ± 0.1 | 3.3 ± 1.2 | 80.6 ± 10.1 | 28.2 | 71.1 | – | N[C@@H](CC(Cc1ccc(OCC[18F])c(O)c1)C(=O)O)C(=O)O (stereo partly drawn) [[^18F]-44, 4-[4-(2-[^18F]fluoroethoxy)-3-hydroxybenzyl]-L-glutamic acid] | –
10 | – | – | – | – | 5.2 ± 1.1 | 0.7 ± 0.2 | 0.2 ± 0.03 | 1.0 ± 0.1 | 77 ± 6.7 | 9.9 | 25 | – | N[C@@H](CC(Cc1ccc(OCC[18F])nc1)C(=O)O)C(=O)O (stereo partly drawn) [[^18F]-56, 4-({6-[2-(^18F)fluoroethoxy]pyridin-3-yl}methyl)-L-glutamic acid] | –
11 | – | – | – | – | 3.9 ± 1.0 | 2.3 ± 0.2 | 0.7 ± 0.1 | 2.3 ± 0.9 | 81.0 ± 7.5 | 17.9 | 23.5 | – | N[C@@H](CCC(Cc1ccc(OCC[18F])cn1)C(=O)O)C(=O)O (stereo partly drawn) [[^18F]-32, (2S)-2-Amino-5-{[5-(2-[^18F]fluoroethoxy)pyridin-2-yl]methyl}hexanedioic acid] | –
12 | 0.9 | 0.2 | 1.6 | 0.8 | 1.8 ± 0.4 | 0.2 ± 0.08 | 0.8 ± 0.1 | 2.8 ± 1.4 | 79 ± 7.8 | 23.3 | 30.4 | – | N[C@@H](C[C@H](Cc1ccc(OC[18F])cc1)C(=O)O)C(=O)O [[^18F]-48, (4S)-4-{4-[(^18F)fluoromethoxy]benzyl}-L-glutamic acid] | –
13 | 0.4 | 0.5 | 3.7 | 1.6 | – | – | – | – | – | – | – | – | N[C@@H](CCC(Cc1ccc(OCC[18F])cc1)C(=O)O)C(=O)O (stereo partly drawn) [[^18F]-12 C5-2] [(2S)-2-amino-5-[4-(fluoroethoxy)benzyl]hexanedioic acid] | –
14 | 2.4 | 0.9 | 2.6 | 1.2 | – | – | – | – | – | – | – | – | N[C@@H](CC(Cc1ccc(OCC[18F])cn1)C(=O)O)C(=O)O (some centres unmarked) [[^18F]-17] | –
15 | 3.1 | 0.2 | 0.5 | 0.2 | – | – | – | – | – | – | – | – | N[C@@H](CC(Cc1ccc(OCC[18F])c[n+]1[O-])C(=O)O)C(=O)O (stereo partly drawn) [[^18F]-35, 4-{[5-(2-[^18F]fluoroethoxy)-1-oxidopyridin-2-yl]methyl}-L-glutamic acid] | –
16 | 0.8 | 1.2 | 3.4 | 1.3 | – | – | – | – | – | – | – | – | N[C@@H](CCC(Cc1ccc(OCC[18F])cc1)C(=O)O)C(=O)O (stereo partly drawn) [[^18F]-12 C5-1] [(2S)-2-amino-5-[4-([^18F]fluoroethoxy)benzyl]hexanedioic acid] | –
17 | 1.0 | 0.2 | 2.4 | 1.1 | – | – | – | – | – | – | – | – | N[C@@H](C[C@@H](Cc1ccc(OC[18F])cc1)C(=O)O)C(=O)O [[^18F]-50, (4R)-4-{4-[(^18F)fluoromethoxy]benzyl}-L-glutamic acid] | –
18 | 2.9 | 1.7 | 1.3 | 0.7 | – | – | – | – | – | – | – | – | N[C@@H](CC(Cc1ccc(C[18F])cc1)C(=O)O)C(=O)O (stereo partly drawn) [[^18F]-66, 4-{4-[(^18F)fluoromethyl]benzyl}-L-glutamic acid] | –
